Experimental data taken from ChEMBL document CHEMBL5500345, “Discovery of a novel homoisoflavonoid derivative 5g for anti-osteoclastic bone loss via targeting FGFR1” (Eur J Med Chem, 2024).
Active and inactive are the calls of the source. The calls are words filed in the database; no cut-off is given here.

Experiments:
BMDM [1] = test: Anti-osteoclastogenic activity in C57/BL6 mouse BMDM cells assessed as inhibition of RANKL-induced osteoclast differentiation at 5 uM incubated for 4 days in presence of M-CSF by TRAP staining based microscopic analysis relative to control; type: functional; conditions: 96 h, time 4 day
BMDM [2] = test: Anti-osteoclastogenic activity in C57/BL6 mouse BMDM cells assessed as inhibition of RANKL-induced osteoclast differentiation at 10 uM incubated for 4 days in presence of M-CSF by TRAP staining based microscopic analysis relative to control; type: functional; conditions: 96 h, time 4 day
BMDM [3] = test: Anti-osteoclastogenic activity in C57/BL6 mouse BMDM cells assessed as inhibition of RANKL-induced osteoclast differentiation by measuring number of TRAP-positive cells incubated for 4 days in presence of M-CSF by TRAP staining based microscopic analysis; type: functional, cell-based; conditions: 96 h
BMDM [4] = test: Cytotoxicity against C57/BL6 mouse BMDM cells at < 20 uM incubated for 48 hrs by EZ-Cytox cell viability assay; type: toxicity, cell-based
BMDM [5] = test: Anti-osteoclastogenic activity in C57/BL6 mouse BMDM cells assessed as inhibition of RANKL-induced F-actin belt formation incubated for 6 days by F-actin ring assay; type: functional, cell-based; conditions: time 6.0 day
BMDM [6] = test: Anti-osteoclastogenic activity in C57/BL6 mouse BMDM cells assessed as inhibition of RANKL-induced bone resorption number incubated for 6 days by fluorescein amine-labeled calcium phosphate based fluorescence spectramax analysis; type: functional, cell-based; conditions: time 6.0 day
BMDM [7] = test: Anti-osteoclastogenic activity in C57/BL6 mouse BMDM cells assessed as inhibition of RANKL-induced bone resorption pit incubated for 6 days by fluorescein amine-labeled calcium phosphate based fluorescence spectramax analysis; type: functional, cell-based; conditions: time 6.0 day
BMDM [8] = test: Anti-osteoclastogenic activity in C57/BL6 mouse BMDM cells assessed as inhibition of RANKL-induced osteoclast formation at 10 uM incubated for 4 days in presence of M-CSF by TRAP staining based microscopic analysis; type: functional, cell-based; conditions: time 4.0 day
[9] = Cytotoxicity against BMP2-induced mouse Pre-Osteoblast cells at < 20 uM incubated for 48 hrs by EZ-Cytox cell viability assay; type: toxicity, cell-based
Pre-Osteoblast [10] = test: Induction of osteogenesis in mouse Pre-Osteoblast cells assessed as increase in ALP expression at < 20 uM incubated for 9 days by BCIP/NBT staining based analysis; type: functional, cell-based; conditions: time 9.0 day
Pre-Osteoblast [11] = test: Induction of osteogenesis in mouse Pre-Osteoblast cells assessed as effect on ALP mRNA expression by qRT-PCR analysis; type: functional, cell-based
Pre-Osteoblast [12] = test: Induction of osteogenesis in mouse Pre-Osteoblast cells assessed as effect on OSX mRNA expression by qRT-PCR analysis; type: functional, cell-based
Pre-Osteoblast [13] = test: Induction of osteogenesis in mouse Pre-Osteoblast cells assessed as effect on RUNX2 mRNA expression by qRT-PCR analysis; type: functional, cell-based
BMDM [14] = test: Anti-osteoclastogenic activity in M-CSF/RANKL-induced C57/BL6 mouse BMDM cells assessed as downregulation of NFATc1 mRNA expression at 10 uM incubated upto 3 days by qRT-PCR analysis; type: functional, cell-based; conditions: time <= 3.0 day
BMDM [15] = test: Anti-osteoclastogenic activity in M-CSF/RANKL-induced C57/BL6 mouse BMDM cells assessed as downregulation of ACP5 mRNA expression at 10 uM incubated upto 3 days by qRT-PCR analysis; type: functional, cell-based; conditions: time <= 3.0 day
BMDM [16] = test: Anti-osteoclastogenic activity in M-CSF/RANKL-induced C57/BL6 mouse BMDM cells assessed as downregulation of Dc-stamp mRNA expression at 10 uM incubated upto 3 days by qRT-PCR analysis; type: functional, cell-based; conditions: time <= 3.0 day
BMDM [17] = test: Anti-osteoclastogenic activity in M-CSF/RANKL-induced C57/BL6 mouse BMDM cells assessed as downregulation of ATP6V0D2 mRNA expression at 10 uM incubated upto 3 days by qRT-PCR analysis; type: functional, cell-based; conditions: time <= 3.0 day
BMDM [18] = test: Anti-osteoclastogenic activity in M-CSF/RANKL-induced C57/BL6 mouse BMDM cells assessed as downregulation of MMP9 mRNA expression at 10 uM incubated upto 3 days by qRT-PCR analysis; type: functional, cell-based; conditions: time <= 3.0 day
BMDM [19] = test: Anti-osteoclastogenic activity in M-CSF/RANKL-induced C57/BL6 mouse BMDM cells assessed as downregulation of CTSK mRNA expression at 10 uM incubated upto 3 days by qRT-PCR analysis; type: functional, cell-based; conditions: time <= 3.0 day
BMDM [20] = test: Anti-osteoclastogenic activity in M-CSF/RANKL-induced C57/BL6 mouse BMDM cells assessed as downregulation of c-FOS mRNA expression at 10 uM incubated upto 3 days by qRT-PCR analysis; type: functional, cell-based; conditions: time <= 3.0 day
BMDM [21] = test: Anti-osteoclastogenic activity in M-CSF/RANKL-induced C57/BL6 mouse BMDM cells assessed as downregulation of CTSK protein expression at 10 uM incubated upto 3 days by Western blotting analysis; type: functional, cell-based; conditions: time <= 3.0 day
[22] = Toxicity in OVX-induced osteoporosis C57BL/6 mouse model assessed as change in body weight at 30 mg/kg,po administrated twice daily for 4 weeks; type: organism-based; conditions: in vivo, 672 h
Mus musculus [23] = test: Anti-osteoporosis activity in OVX-induced osteoporosis C57BL/6 mouse model assessed as prevention of bone loss in femur at 15 mg/kg,po administrated twice daily for 4 weeks by micro-CT scanning analysis; type: functional, organism-based
Mus musculus [24] = test: Anti-osteoporosis activity in OVX-induced osteoporosis C57BL/6 mouse model assessed as increase in bone volume in femur at 15 mg/kg,po administrated twice daily for 4 weeks by micro-CT scanning analysis; type: functional, organism-based
Mus musculus [25] = test: Anti-osteoporosis activity in OVX-induced osteoporosis C57BL/6 mouse model assessed as increase in bone mineral density in femur at 15 mg/kg,po administrated twice daily for 4 weeks by micro-CT scanning analysis; type: functional, organism-based
Mus musculus [26] = test: Anti-osteoporosis activity in OVX-induced osteoporosis C57BL/6 mouse model assessed as prevention of bone loss in femur at 30 mg/kg,po administrated twice daily for 4 weeks by micro-CT scanning analysis; type: functional, organism-based
Mus musculus [27] = test: Anti-osteoporosis activity in OVX-induced osteoporosis C57BL/6 mouse model assessed as increase in bone volume in femur at 30 mg/kg,po administrated twice daily for 4 weeks by micro-CT scanning analysis; type: functional, organism-based
Mus musculus [28] = test: Anti-osteoporosis activity in OVX-induced osteoporosis C57BL/6 mouse model assessed as increase in bone mineral density in femur at 30 mg/kg,po administrated twice daily for 4 weeks by micro-CT scanning analysis; type: functional, organism-based
BMDM [29] = test: Anti-osteoclastogenic activity in M-CSF/RANKL-induced C57/BL6 mouse BMDM cells assessed as downregulation of FGFR1 expression at 10 uM incubated upto 3 days by immunoblotting analysis; type: functional, cell-based; conditions: time <= 3.0 day
BMDM [30] = test: Anti-osteoclastogenic activity in M-CSF/RANKL-induced C57/BL6 mouse BMDM cells assessed as downregulation of ERK1 expression at 10 uM incubated upto 3 days by immunoblotting analysis; type: functional, cell-based; conditions: time <= 3.0 day
BMDM [31] = test: Anti-osteoclastogenic activity in M-CSF/RANKL-induced C57/BL6 mouse BMDM cells assessed as downregulation of ERK2 expression at 10 uM incubated upto 3 days by immunoblotting analysis; type: functional, cell-based; conditions: time <= 3.0 day
BMDM [32] = test: Anti-osteoclastogenic activity in M-CSF/RANKL-induced C57/BL6 mouse BMDM cells assessed as downregulation of IkappaBalpha expression at 10 uM incubated upto 3 days by immunoblotting analysis; type: functional, cell-based; conditions: time <= 3.0 day
BMDM [33] = test: Anti-osteoclastogenic activity in M-CSF/RANKL-induced C57/BL6 mouse BMDM cells assessed as downregulation of NF-kappaB expression at 10 uM incubated upto 3 days by immunoblotting analysis; type: functional, cell-based; conditions: time <= 3.0 day

Cc1ccc(S(=O)(=O)Oc2ccccc2Cc2c(-c3ccccc3)oc3ccccc3c2=O)cc1
inhibition at 5 µM (BMDM [1]): 28.9% | inhibition at 10 µM (BMDM [2]): 68.1%

CC(C)(C)c1ccc(Oc2ccccc2Cc2c(-c3ccccc3)oc3ccccc3c2=O)cc1
inhibition at 5 µM (BMDM [1]): 11.1% | inhibition at 10 µM (BMDM [2]): 12%

Cc1ccc(O)c(Cc2c(-c3ccccc3)oc3ccccc3c2=O)c1
inhibition at 5 µM (BMDM [1]): 21.5% | inhibition at 10 µM (BMDM [2]): 32.5%

O=c1c(Cc2cc(Cl)cc(Cl)c2O)c(-c2ccccc2)oc2ccccc12
inhibition at 5 µM (BMDM [1]): 2.94% | inhibition at 10 µM (BMDM [2]): 14.7%

COc1ccc(O)c(Cc2c(-c3ccccc3)oc3ccc(OC)cc3c2=O)c1
inhibition at 5 µM (BMDM [1]): 17.6% | inhibition at 10 µM (BMDM [2]): 16.8%

CCCCOc1ccccc1Cc1c(-c2ccccc2)oc2ccccc2c1=O
inhibition at 5 µM (BMDM [1]): 19% | inhibition at 10 µM (BMDM [2]): 44.7%

CCOc1cccc(Cc2c(-c3ccccc3)oc3ccccc3c2=O)c1O
inhibition at 5 µM (BMDM [1]): 1.08% | inhibition at 10 µM (BMDM [2]): 25%

O=c1c(Cc2cc(Br)ccc2O)c(-c2ccccc2)oc2ccc(Br)cc12
inhibition at 5 µM (BMDM [1]): -8.26% | inhibition at 10 µM (BMDM [2]): -4.4%

O=c1c(Cc2ccccc2O)c(-c2ccccc2)oc2ccccc12
inhibition at 5 µM (BMDM [1]): 31.5% | inhibition at 10 µM (BMDM [2]): 60.4%

O=c1c(Cc2ccccc2Oc2ccc(O)cc2)c(-c2ccccc2)oc2ccccc12
inhibition at 5 µM (BMDM [1]): 29.4% | inhibition at 10 µM (BMDM [2]): 55.3%

O=c1c(Cc2ccccc2O)c(-c2ccc(-c3ccccc3)cc2)oc2ccccc12
inhibition at 5 µM (BMDM [1]): 37.9% | inhibition at 10 µM (BMDM [2]): 69.3%

COc1ccc(O)c(Cc2c(-c3ccccc3)oc3ccccc3c2=O)c1
inhibition at 5 µM (BMDM [1]): 36.5% | inhibition at 10 µM (BMDM [2]): 38.2%

COc1ccc(-c2oc3ccccc3c(=O)c2Cc2ccccc2O)cc1
inhibition at 5 µM (BMDM [1]): 56.4% | inhibition at 10 µM (BMDM [2]): 79% | IC50 (BMDM [3]): 2390 nM | Activity (BMDM [4]): Non-Toxic | Activity (BMDM [5]): Dose-Dependent Effect | Activity (BMDM [6]): Dose-Dependent Effect | Activity (BMDM [7]): Dose-Dependent Effect | Activity (BMDM [8]): Active | Activity [9]: Non-Toxic | Activity (Pre-Osteoblast [10]): inactive | Activity (Pre-Osteoblast [11]): inactive | Activity (Pre-Osteoblast [12]): inactive | Activity (Pre-Osteoblast [13]): inactive | Activity (BMDM [14]): Active | Activity (BMDM [15]): Active | Activity (BMDM [16]): Active | Activity (BMDM [17]): Active | Activity (BMDM [18]): Active | Activity (BMDM [19]): Active | Activity (BMDM [20]): Active | Activity (BMDM [21]): Active | Activity [22]: Non-Toxic | Activity (Mus musculus [23]): Active | Activity (Mus musculus [24]): Active | Activity (Mus musculus [25]): Active | Activity (Mus musculus [26]): Active | Activity (Mus musculus [27]): Active | Activity (Mus musculus [28]): Active | Activity (BMDM [29]): Active | Activity (BMDM [30]): Active | Activity (BMDM [31]): Active | Activity (BMDM [32]): Active | Activity (BMDM [33]): Active

O=c1c(Cc2ccccc2)c(-c2ccccc2)oc2ccccc12
inhibition at 5 µM (BMDM [1]): 22.6% | inhibition at 10 µM (BMDM [2]): 30.6%

CS(=O)(=O)c1ccc(Oc2ccccc2Cc2c(-c3ccccc3)oc3ccccc3c2=O)cc1
inhibition at 5 µM (BMDM [1]): 23.2% | inhibition at 10 µM (BMDM [2]): 51.8%

O=c1c(Cc2cccc(F)c2)c(-c2ccccc2)oc2ccccc12
inhibition at 5 µM (BMDM [1]): 22% | inhibition at 10 µM (BMDM [2]): 36.3%

O=c1c(Cc2ccccc2O)coc2ccccc12
inhibition at 5 µM (BMDM [1]): 12.8% | inhibition at 10 µM (BMDM [2]): 46.7%

O=c1c(Cc2cc(F)ccc2O)c(-c2ccccc2)oc2ccc(F)cc12
inhibition at 5 µM (BMDM [1]): 40% | inhibition at 10 µM (BMDM [2]): 37.6%

O=c1c(Cc2ccccc2O)c(-c2ccc(Cl)cc2)oc2ccccc12
inhibition at 5 µM (BMDM [1]): 33% | inhibition at 10 µM (BMDM [2]): 36.7%

O=c1c(Cc2cc(Br)ccc2O)c(-c2ccccc2)oc2ccccc12
inhibition at 5 µM (BMDM [1]): 22.7% | inhibition at 10 µM (BMDM [2]): 54.5%

COc1cc(Oc2ccccc2Cc2c(-c3ccccc3)oc3ccccc3c2=O)cc(OC)c1OC
inhibition at 5 µM (BMDM [1]): 22.7% | inhibition at 10 µM (BMDM [2]): 40.3%

O=c1cc(-c2ccccc2)oc2ccccc12 [FLAVONE]
inhibition at 5 µM (BMDM [1]): 7.11% | inhibition at 10 µM (BMDM [2]): 35.4%

O=c1c(Cc2cc(-c3ccccc3)ccc2O)c(-c2ccccc2)oc2ccccc12
inhibition at 5 µM (BMDM [1]): 25.6% | inhibition at 10 µM (BMDM [2]): 23.7%

Cc1ccc(-c2oc3ccc(C)cc3c(=O)c2Cc2cc(C)ccc2O)cc1
inhibition at 5 µM (BMDM [1]): 22.3% | inhibition at 10 µM (BMDM [2]): 23.8%

Cc1ccc(-c2oc3ccccc3c(=O)c2Cc2ccccc2O)cc1
inhibition at 5 µM (BMDM [1]): 34.4% | inhibition at 10 µM (BMDM [2]): 37.8%
